According to patent US6984649B1, “Pyridine derivatives” (Bayer Aktiengesellschaft, priority 2000, dated 2006):
Where a name gives a salt, the structure may show the parent alone.

Biological target: T1, human IKK-β (Homo sapiens, UniProt O14920)
T1 construct: A cDNA fragment encoding human IKK-β open reading frame was generated by PCR; His tag (from pcDNA3.1/His C); made in house; host or cells: Sf21 insect cells (baculovirus); substrate made in E. coli
T1 sequence (O14920 1-756): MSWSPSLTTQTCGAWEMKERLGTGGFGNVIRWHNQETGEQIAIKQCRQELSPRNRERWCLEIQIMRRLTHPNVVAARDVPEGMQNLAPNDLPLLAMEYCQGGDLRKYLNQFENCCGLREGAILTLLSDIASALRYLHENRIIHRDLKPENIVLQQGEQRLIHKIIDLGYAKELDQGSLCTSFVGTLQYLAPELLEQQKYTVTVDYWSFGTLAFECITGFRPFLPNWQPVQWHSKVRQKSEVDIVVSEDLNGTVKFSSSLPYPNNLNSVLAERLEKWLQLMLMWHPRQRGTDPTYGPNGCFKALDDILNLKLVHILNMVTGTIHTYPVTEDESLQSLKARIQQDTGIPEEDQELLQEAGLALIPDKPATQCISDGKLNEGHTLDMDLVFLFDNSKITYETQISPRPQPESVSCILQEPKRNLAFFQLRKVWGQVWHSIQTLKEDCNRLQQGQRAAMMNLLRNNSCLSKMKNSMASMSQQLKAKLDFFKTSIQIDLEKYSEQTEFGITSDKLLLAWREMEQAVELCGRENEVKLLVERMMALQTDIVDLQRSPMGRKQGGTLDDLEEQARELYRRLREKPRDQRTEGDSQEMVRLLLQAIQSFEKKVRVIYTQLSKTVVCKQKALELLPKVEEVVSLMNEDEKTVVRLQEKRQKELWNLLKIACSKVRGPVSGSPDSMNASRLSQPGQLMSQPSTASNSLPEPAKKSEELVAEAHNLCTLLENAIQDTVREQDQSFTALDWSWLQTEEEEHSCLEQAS
Assay: IKK-β kinase inhibitory assay
Type: biochemical
Conditions: compounds as yielded by solid phase synthesis, purity about 40 to 90%, read-out: In vitro activity grade (In vitro IC50)
Source text: [IKK-β Kinase Inhibitory Assay]
(1) Preparation of IKK-β Kinase Protein.
• A cDNA fragment encoding human IKK-β open reading frame was generated by PCR with the use of a pair of primers designed from the published sequence (Woronicz J D et al. (1997) Science 278, 866-869). A template was obtained from Quickclone cDNA (Clontech) using Elongase™ Amplification kit (Life Technologies). The DNA fragments generated by PCR were gel-purified and subcloned into pBluescript. The cDNA fragment cloned in pBluescript was inserted into pcDNA3.1/His C KpnI/NotI, and transferred into pVL1393 SmaI/XbaI (Pharmingen) to construct a baculovirus transfer vector. Then the vector, together with the linearized baculovirus (BaculoGold™, Pharmingen) was used to transfect Sf21 cells (Invitrogen, San Diego, Calif.). Generated recombinant baculovirus was cloned and amplified in Sf21 cells, grown in TNM-FH insect cell medium (Life Technologies, Inc.) supplemented with 10% FCS, […] Gentamycin, 0.1% Pluronic F-68 (Life Technologies, Inc.) as suspension culture (200 ml in 1 L Erlenmeyer flask; 27° C.; 130 rpm). Sf21 cells were infected with this amplified virus with a multiplicity of infection of 5 following standard protocols (Crossen R, Gruenwald S (1997) Baculovirus Expression Vector System Instruction Manual, Pharmingen Corporation) and harvested 48 hrs later. The cells were lysed to obtain the produced chimeric protein of IKK-β kinase fused by histidine (His-tagged IKK-beta). (2) The Preparation of Purified GST-IκBα Fusion Proteins • An expression vector containing the nucleotide sequence encoding fusion protein of GST with amino acid residues 1 to 54 of IκBα under the control of an IPTG-inducible promoter was constructed. The expression vector was introduced in E. coli and the transformant was cultured and lysed to obtain a GST-IκBα fusion protein. Then the resulting GST-IκBα fusion protein was purified and biotinated for kinase assay. (3) The Measurement of IKK-β Kinase Activity • The 96-well format kinase assay of IKK-β were performed to test the inhibitory activity of the compounds of the present invention. First, 5 μl of a test compound was put in the presence of 2.5% dimethyl sulfoxide (DMSO) in each well in a U-bottomed 96-well plate (Falcon). For control wells of background (BG) and total phosphorylation (TP), 5 μl of 2.5% DMSO was put. Recombinant IKK-β (final 0.6 μg/ml) and bio-GST-IκBα (1-54) (final 0.2 μM) were diluted in 25 μl of 2×kinase buffer β (40 mM Tris-HCl, pH 7.6, 40 mM MgCl2, 40 mM β-glycerophosphate, 40 mM p-nitrophenylphosphate, 2 mM EDTA, 40 mM creatine phosphate, 2 mM DTT, 2 mM Na3VO4, 0.2 mg/ml BSA and 0.8 mM phenylmethylsulfonyl fluoride) and transferred to the 96-well plate. Bio-GST-IκBα (1-54) in 25 μl of 2×kinase buffer β without IKK-β was transferred to BG wells. Then 20 μl of 12.5 μM ATP, 62.5 μCi/ml [γ-^33P] ATP (Amersham Pharmacia Biotech) was added and the resulting mixture was incubated for 2 hrs at room temperature. The kinase reactions were terminated by the addition of 150 μl of termination buffer (100 mM EDTA, 1 mg/ml BSA, 0.2 mg NaN3). One hundred and fifty μl of the sample were transferred to a streptavidin-coated, white MTP (Steffens Biotechniche Analysen GmbH #08114E14.FWD) to capture the biotinylated substrates. After 1 hr of incubation, non-bound radioactivity was eliminated by washing the wells five times with 300 μl of washing buffer including 0.9% NaCl and 0.1% (w/v) Tween-20 with the use of a MW-96 plate washer (BioTec). The bound radioactivity was determined after the addition of 170 μl MicroScint-PS scintillation cocktail (Packard) using a TopCount scintillation counter. [Syk Tyrosine Kinase Inhibitory Assay for Selectivity] (1) Preparation of Syk Protein • A cDNA fragment encoding human Syk openreading frame was cloned from total RNA of human Burkitt's lymphoma B cell lines, Raji (American Type Culture Collection), with the use of RT-PCR method.

Structure (SMILES)	IC50
N#Cc1c(C2CCCN(Cc3ccccc3)C2)cc(-c2c(O)cccc2OCC2CC2)nc1N (stereo not drawn) [Example 3-2, 2-amino-4-(1-benzyl-3-piperidinyl)-6-[2-(cyclopropylmethoxy)-6-hydroxyphenyl]nicotinonitrile]	2000 to 10000 nM
N#Cc1c(C2CCNC2)cc(-c2ccccc2O)nc1N (stereo not drawn) [Example 1-2, 2-amino-6-(2-hydroxyphenyl)-4-(3-pirrolidinyl)nicotinonitrile trifluoroacetate]	< 500 nM
N#Cc1c(N2CCCC(N)C2)cc(-c2ccccc2O)nc1N (stereo not drawn) [Example 34-3, 2-amino-4-(3-amino-1-piperidinyl)-6-(2-hydroxyphenyl)nicotinonitrile hydrochloride]	500 to 2000 nM
N#Cc1c(N2CCOCC2)cc(-c2ccccc2O)nc1N [Example 34-1, 2-amino-6-(2-hydroxyphenyl)-4-(4-morpholinyl)nicotinonitrile]	500 to 2000 nM
N#Cc1c(N2CCC(C(N)=O)CC2)cc(-c2ccccc2O)nc1N [Example 34-2, 1-[2-amino-3-cyano-6-(2-hydroxyphenyl)-4-pyridinyl]-4-piperidinecarboxamide]	500 to 2000 nM
Nc1ncnc2nc(-c3c(O)cccc3OCC3CC3)cc(C3CCCNC3)c12 (stereo not drawn) [Example 32-1, 2-[4-amino-5-(3-piperidinyl)pyrido[2,3-d]pyrimidin-7-yl]-3-(cyclopropylmethoxy)phenol hydrochloride]	2000 to 10000 nM
Nc1cc2c(C3CCCNC3)cc(-c3c(O)cccc3OCC3CC3)nc2[nH]c1=O (stereo not drawn) [Example 29-01, 3-amino-7-[2-(cyclopropylmethoxy)-6-hydroxyphenyl]-5-(3-piperidinyl)-1,8-naphthyridin-2(1H)-one hydrochloride]	< 500 nM
Nc1nc(-c2c(O)cccc2F)cc(C2CCCNC2)c1CO (stereo not drawn) [Example 11-2, 2-[6-amino-5-(hydroxymethyl)-4-(3-piperidinyl)-2-pyridinyl]-3-fluorophenol hydrochloride]	< 500 nM
O=c1[nH]c2nc(-c3ccccc3O)cc(C3CCCNC3)c2c(=O)n1-c1ccccc1 (stereo not drawn) [Example 7-3, 7-(2-hydroxyphenyl)-3-phenyl-5-(3-piperidinyl)pyrido[2,3-d]pyrimidine-2,4(1H,3H)-dione hydrochloride]	500 to 2000 nM
N#Cc1c(C2CCCNC2)cc(-c2ccccc2O)nc1NCc1ccccc1 (stereo not drawn) [Example 4-1, 2-(benzylamino)-6-(2-hydroxyphenyl)-4-(3-piperidinyl)nicotinonitrile hydrochloride]	< 500 nM
CC(=O)c1c(C2CCCNC2)cc(-c2ccccc2O)nc1N (stereo not drawn) [Example 15-3, 1-[2-amino-6-(2-hydroxyphenyl)4-(3-piperidinyl)-3-pyridinyl]ethanone hydrochloride]	< 500 nM
NC(=O)c1c(C2CCCNC2)cc(-c2ccccc2O)nc1N (stereo not drawn) [Example 7-1, 2-amino-6-(2-hydroxyphenyl)-4-(3-piperidinyl)nicotinamide hydrochloride]	< 500 nM
N#Cc1c(C2CCCNC2)cc(-c2ncccc2O)nc1N (stereo not drawn) [Example 1-6, 6-amino-3′-hydroxy-4-(3-piperidinyl)-2,2′-bipyridine-5-carbonitrile hydrochloride]	< 500 nM
CNc1nc(-c2ccccc2O)cc(C2CCCNC2)c1C#N (stereo not drawn) [Example 4-3, 6-(2-hydroxyphenyl)-2-(methylamino)-4-(3-piperidinyl)nicotinonitrile hydrochloride]	2000 to 10000 nM
Nc1nc(-c2c(O)cccc2OCC2CC2)cc(C2CCCNC2)c1CNC(=O)NC1CCCCC1 (stereo not drawn) [Example 23-3, N-{[2-amino-6-[2-(cyclopropylmethoxy)-6-hydroxyphenyl]-4-(3-piperidinyl)-3-pyridinyl]methyl}-N′-cyclohexylurea hydrochloride]	< 500 nM
Cn1c(=O)[nH]c2nc(-c3ccccc3O)cc(C3CCCNC3)c2c1=O (stereo not drawn) [Example 10-1, 7-(2-hydroxy-phenyl)-3-methyl-5-piperidin-3-yl-1H-pyrido[2,3-d]pyrimidine-2,4-dione hydrochloride]	< 500 nM
Nc1n[nH]c2nc(-c3ccccc3O)cc(C3CCCNC3)c12 (stereo not drawn) [Example 5-1, 2-[3-amino-4-(3-piperidinyl)-1H-pyrazolo[3,4-b]pyridin-6-yl]phenol hydrochloride]	2000 to 10000 nM
Nc1nc(-c2c(O)cccc2OCC2CC2)cc(C2CCCNC2)c1CO (stereo not drawn) [Example 12-1, 2-[6-amino-5-(hydroxymethyl)-4-(3-piperidinyl)-2-pyridinyl]-3-(cyclopropylmethoxy)phenol hydrochloride]	< 500 nM
CC(=O)Nc1nc(-c2c(O)cccc2OCC2CC2)cc(C2CCNCC2)c1C#N [Example 6-2, N-[3-cyano-6-[2-(cyclopropylmethoxy)-6-hydroxyphenyl]-4-(4-piperidinyl)-2-pyridinyl]acetamide hydrochloride]	< 500 nM
CC(=O)Nc1n[nH]c2nc(-c3ccccc3O)cc(C3CCCNC3)c12 (stereo not drawn) [Example 5-2, N-[6-(2-hydroxyphenyl)-4-(3-piperidinyl)-1H-pyrazolo[3,4-b]pyridin-3-yl]acetamide hydrochloride]	> 10000 nM
Oc1ccccc1-c1cc(C2CCCNC2)c2cn[nH]c2n1 (stereo not drawn) [Example 16-1, 2-(4-Piperidin-3-yl-1H-pyrazolo[3,4-b]pyridin-6-yl)-phenol hydrochloride]	500 to 2000 nM
Nc1nc(-c2c(O)cccc2OCc2ccccc2)cc2c1CN1CCCC2C1 (stereo not drawn) [Example 20-1, 2-(6-amino-5,9-diazatricyclo[7.3.1.02,7]trideca-2,4,6-trien-4-yl)-3-(benzyloxy)phenol hydrochloride]	500 to 2000 nM
Nc1nc(-c2c(O)cccc2OCC2CC2)cc(C2CCNCC2)c1Cn1ccnc1 [Example 21-2, 2-[6-amino-5-(1H-imidazol-1-ylmethyl)-4-(4-piperidinyl)-2-pyridinyl]-3-(cyclopropylmethoxy)phenol hydrochloride]	< 500 nM
Nc1nc(-c2ccccc2O)cc2c1CN[C@@H]2Cc1ccccc1 [Example 20-2, 2-[(1R)-4-amino-1-benzyl-2,3-dihydro-1H-pyrrolo[3,4-d]pyridin-6-yl]phenol hydrochloride]	< 500 nM
